The values below come from patent US20130244257A1, “INTEGRATED MICROFLUIDIC RADIOASSAY AND IMAGING PLATFORM FOR SMALL SAMPLE ANALYSIS” (THE REGENTS OF THE UNIVERSITY OF CALIFORNIA, priority 2010, published 2013).

The experiment deals with BCR-ABL. Put plainly: effect of the buffer surfactant on BCR-ABL kinase activity in the in vitro kinase radio assay. In kind it is biochemical. The following applies: 0.1% in all buffers. On the procedure: Off-Chip And On-Chip In Vitro Kinase Radio Assays were performed for comparison. In vitro kinase assays were performed using established protocols for bead-based immunoaffinity capture of a specific kinase followed by kinase reactions in the presence of a kinase-specific peptide substrate and ^32P labeled ATP. The microfluidic on-chip assay was developed using reagents that were compatible and efficient in the context of microfluidic channels and valves. For the microfluidic assay, 0.1% n-dodecyl-beta-D-maltoside (DDM) was added to all buffers to prevent bead clumping (indicated by /DDM in the buffer name). […] For BCR-ABL kinase immunocapture, the off-chip assay used agarose protein NG beads (40-160 μm; Pierce, Rockford, Ill.) and the on-chip assay used smaller and more sturdy Protein G polystyrene beads (6.7 μm; Spherotech Inc., Lake Forest, Calif.). The large average size and fragility of the agarose beads precluded their use on-chip, and the small size of the polystyrene beads made them impractical for the pipeting-based off-chip assay. Both bead types were coated with anti-c-ABL antibody (OP20, EMD Chemicals).

For the compound `CCCCCCCCCCCCO[C@@H]1O[C@H](CO)[C@@H](O[C@H]2O[C@H](CO)[C@@H](O)[C@H](O)[C@H]2O)[C@H](O)[C@H]1O` [DDM, n-dodecyl-beta-D-maltoside], the “effect on BCR-ABL kinase activity” value was “no detectable effect”.
